ChEMBL document CHEMBL3872240, “Simple N,N-dimethyl phenylsulfonamides show potent anticonvulsant effect in two standard epilepsy models” (Bioorg Med Chem Lett, 2017)
Active and inactive are the calls of the source. The rule behind the calls is not given here.

Assays:
Mus musculus [1] = assay: Anticonvulsant activity in Carworth Farm1 mouse assessed as protection against subcutaneous pentylenetetrazole-induced seizures at 100 mg/kg, ip after 30 mins; type: functional, organism-based
Mus musculus [2] = assay: Anticonvulsant activity in Carworth Farm1 mouse assessed as protection against maximal electroshock-induced seizures at 25 mg/kg, ip administered 30 mins prior to 60-Hz current induction; type: functional, organism-based
Mus musculus [3] = assay: Neurotoxicity in Carworth Farm1 mouse assessed as somnolence up to 100 mg/kg, ip; type: toxicity, organism-based; settings: in vivo
Mus musculus [4] = assay: Neurotoxicity in Carworth Farm1 mouse assessed as sedation up to 100 mg/kg, ip; type: toxicity, organism-based; settings: in vivo
Mus musculus [5] = assay: Neurotoxicity in Carworth Farm1 mouse assessed as muscle relaxation up to 100 mg/kg, ip; type: toxicity, organism-based; settings: in vivo
Mus musculus [6] = assay: Anticonvulsant activity in Carworth Farm1 mouse assessed as protection against maximal electroshock-induced seizures at 50 mg/kg, ip administered 30 mins prior to 60-Hz current induction; type: functional, organism-based
Mus musculus [7] = assay: Anticonvulsant activity in Carworth Farm1 mouse assessed as protection against maximal electroshock-induced seizures at 100 mg/kg, ip administered 30 mins prior to 60-Hz current induction; type: functional, organism-based
Mus musculus [8] = assay: Anticonvulsant activity in Carworth Farm1 mouse assessed as protection against subcutaneous pentylenetetrazole-induced seizures at 400 mg/kg, ip after 30 mins; type: functional, organism-based
Mus musculus [9] = assay: Anticonvulsant activity in Carworth Farm1 mouse assessed as protection against maximal electroshock-induced seizures at 100 to 400 mg/kg, ip administered 30 mins prior to 60-Hz current induction; type: functional, organism-based
Mus musculus [10] = assay: Anticonvulsant activity in Carworth Farm1 mouse assessed as protection against maximal electroshock-induced seizures at 400 mg/kg, ip administered 30 mins prior to 60-Hz current induction; type: functional, organism-based
Mus musculus [11] = assay: Anticonvulsant activity in Carworth Farm1 mouse assessed as protection against maximal electroshock-induced seizures at 50 to 100 mg/kg, ip administered 30 mins prior to 60-Hz current induction; type: functional, organism-based
Mus musculus [12] = assay: Anticonvulsant activity in ip dosed Carworth Farm1 mouse assessed as protection against maximal electroshock-induced seizures administered 30 mins prior to 60-Hz current induction; type: functional
Mus musculus [13] = assay: Anticonvulsant activity in ip dosed Carworth Farm1 mouse assessed as protection against subcutaneous pentylenetetrazole-induced seizures after 30 mins; type: functional; settings: Carworth Farm1, 0.5 h
[14] = Metabolic stability in rat liver microsomes assessed as amount of parent compound remaining after 30 mins; type: ADME; settings: read-out: Stability

Row | Compound | Activity (Mus musculus [3]) | Activity (Mus musculus [4]) | Activity (Mus musculus [5]) | Activity (Mus musculus [6]) | Activity (Mus musculus [7]) | further results
1 | CN(C)S(=O)(=O)c1cccc(F)c1 | Non-Toxic | Non-Toxic | Non-Toxic | Active | Active | Activity (Mus musculus [1]): Active; Activity (Mus musculus [2]): Active
2 | CN(C)S(=O)(=O)c1ccccc1 | Non-Toxic | Non-Toxic | Non-Toxic |  | Active | 
3 | CN(C)S(=O)(=O)c1ccc(Cl)c(Cl)c1 | Non-Toxic | Non-Toxic | Non-Toxic |  | Active | 
4 | CCCN(C)S(=O)(=O)c1cccc(Cl)c1 | Non-Toxic | Non-Toxic | Non-Toxic |  |  | 
5 | CN(C)S(=O)(=O)c1cccc(C#N)c1 | Non-Toxic | Non-Toxic | Non-Toxic | Active | Active | 
6 | CN(C)S(=O)(=O)c1ccc(Cl)cc1 | Non-Toxic | Non-Toxic | Non-Toxic | Active | Active | Activity (Mus musculus [8]): Active; Activity (Mus musculus [2]): Active
7 | CN(CCO)S(=O)(=O)c1cccc(Cl)c1 | Non-Toxic | Non-Toxic | Non-Toxic |  |  | 
8 | CN(C)S(=O)(=O)c1cc(Cl)cc(Cl)c1 | Non-Toxic | Non-Toxic | Non-Toxic |  | Active | 
9 | CN(C)S(=O)(=O)c1cccc(Oc2ccccc2)c1 | Non-Toxic | Non-Toxic | Non-Toxic |  |  | 
10 | CN(C)S(=O)(=O)c1cccc(OC(F)(F)F)c1 | Non-Toxic | Non-Toxic | Non-Toxic |  | Active | 
11 | CN(C)S(=O)(=O)c1cccc(Br)c1 | Non-Toxic | Non-Toxic | Non-Toxic | Active | Active | 
12 | CCN(CC)S(=O)(=O)c1cccc(Cl)c1 | Non-Toxic | Non-Toxic | Non-Toxic | Active | Active | Activity (Mus musculus [8]): Active
13 | COc1cccc(S(=O)(=O)N(C)C)c1 | Non-Toxic | Non-Toxic | Non-Toxic |  |  | 
14 | CN(C)S(=O)(=O)c1cccc(N)c1 | Non-Toxic | Non-Toxic | Non-Toxic |  |  | 
15 | CN(C)S(=O)(=O)c1ccccc1Cl | Non-Toxic | Non-Toxic | Non-Toxic | Active | Active | Activity (Mus musculus [9]): Active; Activity (Mus musculus [8]): Active; Activity (Mus musculus [10]): Active
16 | CNS(=O)(=O)c1cccc(Cl)c1 | Non-Toxic | Non-Toxic | Non-Toxic | Active | Active | Activity (Mus musculus [8]): Active; Activity (Mus musculus [2]): Active
17 | CCNC(=O)C1=C(Cl)c2ccccc2S(=O)(=O)N1C |  |  |  |  |  | Activity (Mus musculus [11]): Active
18 | CNS(=O)(=O)Cc1cccc(Cl)c1 | Non-Toxic | Non-Toxic | Non-Toxic |  |  | 
19 | CN(C)S(=O)(=O)c1cccc(C(F)(F)F)c1 | Non-Toxic | Non-Toxic | Non-Toxic |  | Active | Activity (Mus musculus [1]): Active
20 | NS(=O)(=O)c1cccc(Cl)c1 | Non-Toxic | Non-Toxic | Non-Toxic | Active | Active | Activity (Mus musculus [2]): Active
21 | Cc1cccc(S(=O)(=O)N(C)C)c1 | Non-Toxic | Non-Toxic | Non-Toxic |  |  | 
22 | CN(C)S(=O)(=O)c1cccc(Cl)c1 | Non-Toxic | Non-Toxic | Non-Toxic | Active | Active | ED50 (Mus musculus [12]): 12 mg/kg; ED50 (Mus musculus [13]): 34 mg/kg; Activity (Mus musculus [1]): Active; Activity (Mus musculus [8]): Active; Activity (Mus musculus [2]): Active; remaining at 0.5 h [14]: 95%
23 | CN(C)S(=O)(=O)c1cc(Cl)ccc1Cl | Non-Toxic | Non-Toxic | Non-Toxic |  |  | 
24 | CC1(C)O[C@@H]2[C@@H](CO[C@@]3(COS(N)(=O)=O)OC(C)(C)O[C@@H]23)O1 [TOPIRAMATE] |  |  |  |  |  | ED50 (Mus musculus [12]): 33 mg/kg; ED50 (Mus musculus [13]): > 800 mg/kg
25 | NS(=O)(=O)Cc1noc2ccccc12 [ZONISAMIDE] |  |  |  |  |  | ED50 (Mus musculus [12]): 20 mg/kg; ED50 (Mus musculus [13]): > 500 mg/kg
26 | CN(C)S(=O)(=O)c1cccc([N+](=O)[O-])c1 | Non-Toxic | Non-Toxic | Non-Toxic |  | Active | 
27 | O=S(=O)(c1cccc(Cl)c1)N1CCCC1 | Non-Toxic | Non-Toxic | Non-Toxic |  |  | 
